Measurements reported in patent US7309494B2, “Peptides of the respiratory syncytial virus (RSV) G protein and their use in a vaccine” (Pierre Fabre Medicament, priority 2001, dated 2007).
“Also recorded” adds a separate entry of the source.

Tests used:
RSV-B = assay: Anti-RSV-B antibody titer before and after immunization in naive mice; type: in vivo; settings: naive Balb/c mice, 6 or 1.5 μg G2Na equivalent i.m. on D0 and D14; after first immunization
Procedure: (§1) In order to test the immunogenicity of the G23a and G20a peptides, Balb/c mice were immunized with 6 or 1.5 μg of G2Na equivalent twice, on D0 and D14, intramuscularly.
(§2) Some mice were sensitized with RSV 20 days before the first immunization in order to make them seropositive with respect to RSV. A sample was taken from the mice before each immunization and the anti-G2Na, RSV-A and RSV-B antibody titers were determined.

RSV-A [1] = assay: Protection against an RSV-A challenge in immunized mice (viral titer 5 days after challenge); type: in vivo, Balb/c mice; settings: naive mice
Procedure: as §1
Ten days after the final immunization, the mice were challenged with 10^5 pfu/50 μl of RSV-A. The viral titer was measured 5 days after the challenge.

RSV-A [2] = assay: Anti-RSV-A antibody titer before and after immunization in naive mice; type: in vivo, Balb/c mice
Procedure: as §1, §2

[3] = Determination of the IHS (immediate hypersensitivity) in guinea pigs; type: in vivo; settings: for death of the guinea pigs (dead/tested): i.m. D0 and D8 with 20% adjuphos, i.v. booster D21
Procedure: Guinea pigs are immunized on D0 and D8 with the various molecules adjuvented with 20% (v/v) adjuphos, given i.m. On D21, a booster is given with the various molecules, nonadjuvented, by i.v. The death of the guinea pigs is then evaluated.
A positive experimental control consisting of ovalbumin at 200 μg is included for each molecule tested (cf. table 3 below).

Molecule: G20a: fragment of the G protein of RSV-A (140-190)-(144-158) of 69 amino acids, SEQ ID No.1
- anti-RSV-B antibody response (RSV-B): develop anti-RSV-A and RSV-B antibody responses from the first immunization
- protection of the pulmonary tract subsequent to challenge with RSV-A (RSV-A [1]; challenge 10^5 pfu/50 μl RSV-A ten days after final immunization): induces protection of the pulmonary tract; also recorded: protective
- immunogenicity and protection compared with BBG2Na (RSV-A [1]): comparable to those observed with BBG2Na
- anti-RSV-A antibody response (RSV-A [2]; naive Balb/c mice, 6 or 1.5 μg G2Na equivalent i.m. on D0 and D14, after first immunization): develop anti-RSV-A and RSV-B antibody responses from the first immunization
- immunogenicity in naive mice (summary) (RSV-A [2]; naive mice): immunogenic
- death of the guinea pigs (dead/tested) ([3]; 4 mg): 0/6
- death of the guinea pigs (dead/tested) ([3]; 40 mg): 0/6
- induction of IHS ([3]; guinea pigs, 6 animals tested): does not induce any IHS in 6/6 animals tested

B1: ovalbumin (protein, UniProt P01012 2-386, looked up)
Ovalbumin: GSIGAASMEFCFDVFKELKVHHANENIFYCPIAIMSALAMVYLGAKDSTRTQINKVVRFDKLPGFGDSIEAQCGTSVNVHSSLRDILNQITKPNDVYSFSLASRLYAEERYPILPEYLQCVKELYRGGLEPINFQTAADQARELINSWVESQTNGIIRNVLQPSSVDSQTAMVLVNAIVFKGLWEKAFKDEDTQAMPFRVTEQESKPVQMMYQIGLFRVASMASEKMKILELPFASGTMSMLVLLPDEVSGLEQLESIINFEKLTEWTSSNVMEERKIKVYLPRMKMEEKYNLTSVLMAMGITDVFSSSANLSGISSAESLKISQAVHAAHAEINEAGREVVGSAEAGVDAASVSEEFRADHPFLFCIKHIATNAVLFFGRCVSP
notes: positive experimental control consisting of ovalbumin at 200 μg
- death of the guinea pigs (dead/tested) ([3]; positive control T+, ovalbumin at 200 μg): 5/6
